Each block holds one compound with its values, some of them ahead of it.
What was measured:
[1] = biological target: T1, Insulin-like growth factor-binding protein 5 (Homo sapiens, UniProt P24593); assay: Dissociation constant binding to Insulin-like growth factor binding protein 5 at the residue L-81
[2] = biological target: T1, Insulin-like growth factor-binding protein 5; assay: Dissociation constant in PBS binding to Insulin-like growth factor binding protein 5 at the residue L73
[3] = biological target: T1, Insulin-like growth factor-binding protein 5; assay: Dissociation constant in DMSO binding to Insulin-like growth factor binding protein 5 at the residue Y50
[4] = biological target: T1, Insulin-like growth factor-binding protein 5; assay: Dissociation constant in PBS binding to Insulin-like growth factor binding protein 5 at the residue K91
[5] = biological target: T1, Insulin-like growth factor-binding protein 5; assay: Dissociation constant in DMSO binding to Insulin-like growth factor binding protein 5 at the residue L81
[6] = biological target: T1, Insulin-like growth factor-binding protein 5; assay: Dissociation constant in PBS binding to Insulin-like growth factor binding protein 5 at the residue R87
[7] = biological target: T1, Insulin-like growth factor-binding protein 5; assay: Dissociation constant in PBS binding to Insulin-like growth factor binding protein 5 at the residue Y86
[8] = biological target: T1, Insulin-like growth factor-binding protein 5; assay: Dissociation constant in DMSO binding to Insulin-like growth factor binding protein 5 at the residue K91
[9] = biological target: T1, Insulin-like growth factor-binding protein 5; assay: Dissociation constant in DMSO binding to Insulin-like growth factor binding protein 5 at the residue S85
[10] = biological target: T1, Insulin-like growth factor-binding protein 5; assay: Dissociation constant in PBS binding to Insulin-like growth factor binding protein 5 at the residue Y50
[11] = biological target: T1, Insulin-like growth factor-binding protein 5; assay: Dissociation constant in DMSO binding to Insulin-like growth factor binding protein 5 at the residue L73
[12] = biological target: T1, Insulin-like growth factor-binding protein 5; assay: Dissociation constant in DMSO binding to Insulin-like growth factor binding protein 5 at the residue Y86
[13] = biological target: T1, Insulin-like growth factor-binding protein 5; assay: Dissociation constant in DMSO binding to Insulin-like growth factor binding protein 5 at the residue R87
[14] = biological target: T1, Insulin-like growth factor-binding protein 5; assay: Dissociation constant in PBS binding to Insulin-like growth factor binding protein 5 at the residue L81
[15] = biological target: T1, Insulin-like growth factor-binding protein 5; assay: Dissociation constant in PBS binding to Insulin-like growth factor binding protein 5 at the residue S85
[16] = biological target: T1, Insulin-like growth factor-binding protein 5; assay: Dissociation constant in BS binding to Insulin-like growth factor binding protein 5 at the residue K91
[17] = biological target: T1, Insulin-like growth factor-binding protein 5; assay: Dissociation constant in binding to Insulin-like growth factor binding protein 5 at the residue Y50
[18] = biological target: T1, Insulin-like growth factor-binding protein 5; assay: Dissociation constant in binding to Insulin-like growth factor binding protein 5 at the residue Y86
[19] = biological target: T1, Insulin-like growth factor-binding protein 5; assay: Dissociation constant in binding to Insulin-like growth factor binding protein 5 at the residue R87
[20] = biological target: T1, Insulin-like growth factor-binding protein 5; assay: Dissociation constant in binding to Insulin-like growth factor binding protein 5 at the residue L81
[21] = biological target: T1, Insulin-like growth factor-binding protein 5; assay: Dissociation constant in binding to Insulin-like growth factor binding protein 5 at the residue S85
[22] = biological target: T1, Insulin-like growth factor-binding protein 5; assay: Dissociation constant in binding to Insulin-like growth factor binding protein 5 at the residue L73

T1 sequence (P24593 whole entry): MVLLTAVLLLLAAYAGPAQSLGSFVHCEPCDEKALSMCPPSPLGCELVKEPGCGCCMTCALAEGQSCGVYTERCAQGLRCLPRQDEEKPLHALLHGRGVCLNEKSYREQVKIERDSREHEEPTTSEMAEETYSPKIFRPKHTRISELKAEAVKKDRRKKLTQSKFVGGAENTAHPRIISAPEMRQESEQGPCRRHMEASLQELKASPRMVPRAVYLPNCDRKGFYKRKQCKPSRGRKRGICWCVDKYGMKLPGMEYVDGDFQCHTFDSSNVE

- Kd [1]: 718 µM
SMILES: CC(C)(C)Oc1ccc(C[C@@H](NC(=O)OCC2c3ccccc3-c3ccccc32)C(=O)O)cc1

SMILES: O=C(N[C@H](Cc1ccc(OP(=O)(O)O)cc1)C(=O)O)OCC1c2ccccc2-c2ccccc21
- Kd [2]: 2930 µM
- Kd [3]: 1580 µM
- Kd [4]: 2120 µM
- Kd [5]: 2780 µM
- Kd [6]: 2360 µM
- Kd [7]: 1720 µM
- Kd [1]: 2780 µM
- Kd [8]: 2420 µM
- Kd [9]: 1380 µM
- Kd [10]: 1820 µM
- Kd [11]: 1310 µM
- Kd [12]: 1900 µM
- Kd [13]: 1640 µM
- Kd [14]: 2880 µM
- Kd [15]: 2330 µM

- Kd [1]: 1080 µM
SMILES: O=C(N[C@H](Cc1ccccc1)C(=O)O)OCC1c2ccccc2-c2ccccc21

- Kd [16]: 719000 µM
- Kd [17]: 648000 µM
- Kd [18]: 783000 µM
- Kd [19]: 921000 µM
- Kd [20]: 610000 µM
- Kd [21]: 650000 µM
- Kd [22]: 541000 µM
SMILES: C[S+](C)[O-] [DIMETHYL SULFOXIDE]
